Results from patent US7915291B2, “Hepatitis C virus inhibitors” (Bristol-Myers Squibb Company, priority 2002, dated 2011).
Read-outs that look alike come from different tables or passages of the source.

Experiments:
[1] = target: HCV NS3/4A protease complex, BMS strain (UniProt P27958, C1454S/C1711G, species not given/STRAIN_BMS); test: Recombinant HCV NS3/4A protease complex FRET peptide assay (BMS strain); format: biochemical, HCV genotype 1a
Summary of the method: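 Percent inhibition taken from the linear-range fluorescence slope relative to uninhibited control, read kinetically for about 15 min at 25° C. Enzyme (2-3 nM, BMS NS3/4A complex, lysine-tailed, Ni-NTA purified) met compound for 1 min before 2 μM FRET depsipeptide substrate started cleavage.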

[2] = tested on: HCV replicon in Huh7 cells; test: HCV replicon cell-based assay; design: species or system HCV strain 1B; conditions: Hepatitis C virus, Huh-7; HCV replicon, Huh7 cells; read-out: EC50 range
[3] = NS3/4A BMS strain; read-out: IC50 range
[4] = read-out: IC50 range; NS3/4A BMS strain

CC[C@@H]1C[C@]1(NC(=O)[C@@H]1C[C@@H](Oc2nccc3cc(OC)c(F)cc23)CN1C(=O)[C@@H](NC(=O)OC(C)(C)C)C(C)(C)C)C(=O)NS(=O)(=O)C1CC1 [Compound 298]
IC50 [1, 3]: < 100 nM
EC50 [2]: < 100 nM

CC[C@@H]1C[C@]1(NC(=O)[C@@H]1C[C@@H](Oc2nccc3c(F)c(OC)ccc23)CN1C(=O)[C@@H](NC(=O)OC(C)(C)C)C(C)(C)C)C(=O)NS(=O)(=O)C1CC1 [Compound 299]
IC50 [1, 3]: < 100 nM
EC50 [2]: 100 to 1000 nM

CC[C@@H]1C[C@]1(NC(=O)[C@@H]1C[C@@H](Oc2cc3c(Cl)nccc3cc2OC)CN1C(=O)[C@@H](NC(=O)OC(C)(C)C)C(C)(C)C)C(=O)NS(=O)(=O)C1CC1 [Compound 300]
IC50 [1, 3]: < 100 nM
EC50 [2]: 100 to 1000 nM

C=CC1C[C@]1(NC(=O)[C@@H]1C[C@@H](Oc2nc(-c3ccccn3)cc3cc(OC)ccc23)CN1C(=O)[C@@H](NC(=O)OC(C)(C)C)C(C)(C)C)C(=O)NS(=O)(=O)C1CC1 (stereo partly shown) [Compound 320]
IC50 [1, 3]: < 100 nM
EC50 [2]: < 100 nM

C=CC1C[C@]1(NC(=O)[C@@H]1C[C@@H](Oc2nc(-c3csc(N(CC)CC)n3)cc3cc(OC)ccc23)CN1C(=O)[C@@H](NC(=O)OC(C)(C)C)C(C)(C)C)C(=O)NS(=O)(=O)C1CC1 (stereo partly shown) [Compound 321]
IC50 [1, 3]: < 100 nM
EC50 [2]: 100 to 1000 nM

C=CC1C[C@]1(NC(=O)[C@@H]1C[C@@H](Oc2nc(-c3csc(N(C)C)n3)cc3cc(OC)ccc23)CN1C(=O)[C@@H](NC(=O)OC(C)(C)C)C(C)(C)C)C(=O)NS(=O)(=O)C1CC1 (stereo partly shown) [Compound 322]
IC50 [1, 3]: < 100 nM
EC50 [2]: < 100 nM

C=CC1C[C@]1(NC(=O)[C@@H]1C[C@@H](Oc2noc3cc(OC)ccc23)CN1C(=O)[C@@H](NC(=O)OC(C)(C)C)C(C)(C)C)C(=O)NS(=O)(=O)C1CC1 (stereo partly shown) [Compound 323]
IC50 [1, 3]: < 100 nM
EC50 [2]: 100 to 1000 nM

C=CC1C[C@]1(NC(=O)[C@@H]1C[C@@H](Oc2nsc3ccccc23)CN1C(=O)[C@@H](NC(=O)OC(C)(C)C)C(C)(C)C)C(=O)NS(=O)(=O)C1CC1 (stereo partly shown) [Compound 324]
IC50 [1, 3]: < 100 nM
EC50 [2]: 100 to 1000 nM

C=CC1C[C@]1(NC(=O)[C@@H]1C[C@@H](Oc2nc(-c3ccncc3)cc3cc(OC)ccc23)CN1C(=O)[C@@H](NC(=O)OC(C)(C)C)C(C)(C)C)C(=O)NS(=O)(=O)C1CC1 (stereo partly shown) [Compound 325]
IC50 [1, 3]: < 100 nM
EC50 [2]: < 100 nM

C=CC1C[C@]1(NC(=O)[C@@H]1C[C@@H](Oc2nc(-c3ccc(N(C)C)cc3)cc3cc(OC)ccc23)CN1C(=O)[C@@H](NC(=O)OC(C)(C)C)C(C)(C)C)C(=O)NS(=O)(=O)C1CC1 (stereo partly shown) [Compound 326]
IC50 [1, 3]: < 100 nM
EC50 [2]: < 100 nM

C=CC1C[C@]1(NC(=O)[C@@H]1C[C@@H](Oc2nc(-c3ccc(N(CC)CC)cc3)cc3cc(OC)ccc23)CN1C(=O)[C@@H](NC(=O)OC(C)(C)C)C(C)(C)C)C(=O)NS(=O)(=O)C1CC1 (stereo partly shown) [Compound 327]
IC50 [1, 3]: < 100 nM
EC50 [2]: < 100 nM

C=CC1C[C@]1(NC(=O)[C@@H]1C[C@@H](Oc2nc(-c3cccnc3)cc3cc(OC)ccc23)CN1C(=O)[C@@H](NC(=O)OC(C)(C)C)C(C)(C)C)C(=O)NS(=O)(=O)C1CC1 (stereo partly shown) [Compound 328]
IC50 [1, 3]: < 100 nM
EC50 [2]: < 100 nM

C=CC1C[C@]1(NC(=O)[C@@H]1C[C@@H](Oc2nc(-c3ccccc3N(C)C)cc3cc(OC)ccc23)CN1C(=O)[C@@H](NC(=O)OC(C)(C)C)C(C)(C)C)C(=O)NS(=O)(=O)C1CC1 (stereo partly shown) [Compound 329]
IC50 [1, 3]: < 100 nM
EC50 [2]: < 100 nM

C=CC1C[C@]1(NC(=O)[C@@H]1C[C@@H](Oc2nc(-c3cccc(N(C)C)c3)cc3cc(OC)ccc23)CN1C(=O)[C@@H](NC(=O)OC(C)(C)C)C(C)(C)C)C(=O)NS(=O)(=O)C1CC1 (stereo partly shown) [Compound 330]
IC50 [1, 3]: < 100 nM
EC50 [2]: < 100 nM

C=CC1C[C@]1(NC(=O)[C@@H]1C[C@@H](Oc2noc3ccccc23)CN1C(=O)[C@@H](NC(=O)OC(C)(C)C)C(C)(C)C)C(=O)NS(=O)(=O)C1CC1 (stereo partly shown) [Compound 334]
IC50 [1, 3]: 100 to 1000 nM
EC50 [2]: 100 to 1000 nM

C=CC1C[C@]1(NC(=O)[C@@H]1C[C@@H](Oc2nccc(-c3ccccc3)n2)CN1C(=O)[C@@H](NC(=O)OC)C(C)(C)C)C(=O)NS(=O)(=O)C1CC1 (stereo partly shown) [Compound 335]
IC50 [1, 3]: < 100 nM
EC50 [2]: 1000 to 10000 nM

C=CC1C[C@]1(NC(=O)[C@@H]1C[C@@H](Oc2nccc(-c3ccccn3)n2)CN1C(=O)[C@@H](NC(=O)OC)C(C)(C)C)C(=O)NS(=O)(=O)C1CC1 (stereo partly shown) [Compound 336]
IC50 [1, 3]: 100 to 1000 nM
EC50 [2]: 1000 to 10000 nM

C=CC1C[C@]1(NC(=O)[C@@H]1C[C@@H](Oc2nccc(-c3cccs3)n2)CN1C(=O)[C@@H](NC(=O)OC)C(C)(C)C)C(=O)NS(=O)(=O)C1CC1 (stereo partly shown) [Compound 337]
IC50 [1, 3]: 100 to 1000 nM
EC50 [2]: 1000 to 10000 nM

C=CC1C[C@]1(NC(=O)[C@@H]1C[C@@H](Oc2nccc(-c3cccs3)n2)CN1C(=O)[C@@H](NC(=O)CC1CC1)C(C)(C)C)C(=O)NS(=O)(=O)C1CC1 (stereo partly shown) [Compound 338]
IC50 [1, 3]: < 100 nM
EC50 [2]: 1000 to 10000 nM

C=CC1C[C@]1(NC(=O)[C@@H]1C[C@@H](Oc2nccc(-c3ccco3)n2)CN1C(=O)[C@@H](NC(=O)CC1CC1)C(C)(C)C)C(=O)NS(=O)(=O)C1CC1 (stereo partly shown) [Compound 339]
IC50 [1, 3]: < 100 nM
EC50 [2]: 1000 to 10000 nM

C=CC1C[C@]1(NC(=O)[C@@H]1C[C@@H](Oc2nccc(-c3nccs3)n2)CN1C(=O)[C@@H](NC(=O)CC1CC1)C(C)(C)C)C(=O)NS(=O)(=O)C1CC1 (stereo partly shown) [Compound 340]
IC50 [1, 3]: < 100 nM
EC50 [2]: 10000 to 100000 nM

C=CC1C[C@]1(NC(=O)[C@@H]1C[C@@H](COc2cccc(Br)c2)CN1C(=O)[C@@H](NC(=O)OC)C(C)(C)C)C(=O)NS(=O)(=O)C1CC1 (stereo partly shown) [Compound 345]
IC50 [1, 3]: 1000 to 10000 nM
EC50 [2]: 10000 to 100000 nM

C=CC1C[C@]1(NC(=O)[C@@H]1C[C@@H](COc2cncc(-c3ccsc3)c2)CN1C(=O)[C@@H](NC(=O)OC)C(C)(C)C)C(=O)NS(=O)(=O)C1CC1 (stereo partly shown) [Compound 347]
IC50 [1, 4]: 100 to 1000 nM
EC50 [2]: 10000 to 100000 nM

C=CC1C[C@]1(NC(=O)[C@@H]1C[C@@H](COc2ccnc(-c3cccs3)c2)CN1C(=O)[C@@H](NC(=O)OC)C(C)(C)C)C(=O)NS(=O)(=O)C1CC1 (stereo partly shown) [Compound 350]
IC50 [1, 4]: 100 to 1000 nM
EC50 [2]: 10000 to 100000 nM

C=CC1C[C@]1(NC(=O)[C@@H]1C[C@@H](COc2cccc(-c3ccoc3)n2)CN1C(=O)[C@@H](NC(=O)OC)C(C)(C)C)C(=O)NS(=O)(=O)C1CC1 (stereo partly shown) [Compound 355]
IC50 [1, 3]: 100 to 1000 nM
EC50 [2]: 10000 to 100000 nM

C=CC1C[C@]1(NC(=O)[C@@H]1C[C@@H](COc2cccc(-c3cccs3)n2)CN1C(=O)[C@@H](NC(=O)OC)C(C)(C)C)C(=O)NS(=O)(=O)C1CC1 (stereo partly shown) [Compound 356]
IC50 [1, 3]: 100 to 1000 nM
EC50 [2]: 1000 to 10000 nM

C=CC1C[C@]1(NC(=O)[C@@H]1C[C@@H](Nc2nccc3ccccc23)CN1C(=O)[C@@H](NC(=O)OC(C)(C)C)C(C)(C)C)C(=O)NS(=O)(=O)C1CC1 (stereo partly shown) [Compound 357]
IC50 [1, 4]: < 100 nM
EC50 [2]: 100 to 1000 nM

C=C[C@@H]1C[C@]1(NC(=O)[C@@H]1C[C@@H](Oc2cc(-c3csc(NC(C)C)n3)nc3cc(OC)ccc23)CN1C(=O)[C@@H](NC(=O)OC(C)(C)C)C(C)(C)C)C(=O)NS(=O)(=O)C1CC1 [Compound 370]
IC50 [1, 4]: 100 to 1000 nM
EC50 [2]: 1000 to 10000 nM

C=C[C@@H]1C[C@]1(NC(=O)[C@@H]1C[C@@H](Oc2ccnc3cc(Cl)ccc23)CN1C(=O)[C@@H](NC(=O)OC(C)(C)C)C(C)(C)C)C(=O)NS(=O)(=O)C1CC1 [Compound 371]
IC50 [1, 3]: < 100 nM
EC50 [2]: < 100 nM

C=C[C@@H]1C[C@]1(NC(=O)[C@@H]1C[C@@H](Oc2ccnc3cc(Cl)ccc23)CN1C(=O)[C@@H](NC(=O)OC1CCCC1)C(C)(C)C)C(=O)NS(=O)(=O)C1CC1 [Compound 372]
IC50 [1, 3]: < 100 nM
EC50 [2]: < 100 nM

C=C[C@@H]1C[C@]1(NC(=O)[C@@H]1C[C@@H](Oc2cc(C3CC3)nc3cc(OC)ccc23)CN1C(=O)[C@@H](NC(=O)OC(C)(C)C)C(C)(C)C)C(=O)NS(=O)(=O)C1CC1 [Compound 373]
IC50 [1, 3]: < 100 nM
EC50 [2]: < 100 nM

C=C[C@@H]1C[C@]1(NC(=O)[C@@H]1C[C@@H](Oc2ccnc3cc(OC)ccc23)CN1C(=O)[C@@H](NC(=O)OC(C)(C)C)C(C)(C)C)C(=O)NS(=O)(=O)C1CCC1 [Compound 374, BOCNH-P3(L-t -BuGly)-P2[(4R)-(7-methoxyquinoline-4-oxo)-S-proline]-P1(1R,2S Vinyl Acca)-CONHSO2-Cyclobutane]
IC50 [1, 3]: < 100 nM
EC50 [2]: 100 to 1000 nM

C=C[C@@H]1C[C@]1(NC(=O)[C@@H]1C[C@@H](Oc2ccnc3cc(OC)ccc23)CN1C(=O)[C@@H](NC(=O)OC(C)(C)C)C(C)(C)C)C(=O)NS(=O)(=O)C1CC1 [Compound 375]
IC50 [1, 3]: < 100 nM
EC50 [2]: < 100 nM

C=CCCCCC[C@H](NC(=O)OC(C)(C)C)C(=O)N1C[C@H](Oc2ccnc3cc(OC)ccc23)C[C@H]1C(=O)N[C@]1(C(=O)NS(=O)(=O)C2CC2)C[C@H]1C=C [Compound 377]
IC50 [1, 3]: < 100 nM
EC50 [2]: 100 to 1000 nM

C=C[C@@H]1C[C@]1(NC(=O)[C@@H]1C[C@@H](Oc2ccnc3cc(OC)ccc23)CN1C(=O)[C@@H](NC(=O)OC(C)(C)C)C(C)C)C(=O)NS(=O)(=O)C1CC1 [Compound 378]
IC50 [1, 3]: < 100 nM
EC50 [2]: < 100 nM

C=C[C@@H]1C[C@]1(NC(=O)[C@@H]1C[C@@H](Oc2cc(-c3ccccn3)nc3cc(OC)ccc23)CN1C(=O)[C@@H](NC(=O)OC(C)(C)C)C(C)(C)C)C(=O)NS(=O)(=O)C1CC1 [Compound 379]
IC50 [1, 3]: < 100 nM
EC50 [2]: < 100 nM

C=C[C@@H]1C[C@]1(NC(=O)[C@@H]1C[C@@H](Oc2nccc3cc(OC)ccc23)CN1C(=O)[C@@H](NC(=O)OC1CCCC1)C(C)(C)C)C(=O)NS(=O)(=O)C1CCC1 [Compound 380]
IC50 [1, 3]: < 100 nM
EC50 [2]: 100 to 1000 nM

C=C[C@@H]1C[C@]1(NC(=O)[C@@H]1C[C@@H](Oc2nccc3cc(OC)ccc23)CN1C(=O)[C@@H](NC(=O)OCC(C)(C)C)C(C)(C)C)C(=O)NS(=O)(=O)C1CCC1 [Compound 381]
IC50 [1, 4]: < 100 nM
EC50 [2]: 100 to 1000 nM
